Results from patent US20250255857A1, “METHODS OF TREATING ANDROGEN RECEPTOR-INDEPENDENT PROSTATE CANCER” (FOGHORN THERAPEUTICS INC., priority 2022, published 2025).

How the values were obtained:
[1] = tested on: C42B prostate xenograft tumors; test: C42B prostate xenograft tumor model, tumor growth inhibition; format: in vivo, mice
Experimental: (§1) Procedure: The experimental details of the studies, including tumor model, mouse strain, cell number implanted, vehicle used, days of treatment, treatment details, and average tumor size at start of dosing are outlined in Table 1. All study mice were purchased from Beijing Anikeeper Biotech and Matrigel was utilized as a basement membrane for all xenograft models. All xenografts were engrafted subcutaneously in the right flank region. The vehicles and Compound 1 (3 mg/kg) were administered twice weekly (BIW) intraperitoneally and enzalutamide (30 mg/kg) was administered orally once daily (QD), when applicable. Tumor volumes and body weights were measured over the course of study, and doses were adjusted by body weight to achieve the proper dose in terms of mg/kg.

[2] = tested on: VCAP human prostate cancer tumor cells; test: VCaP CRPC CDX model in castrated mice (Example 6), tumor growth inhibition and tolerability; format: in vivo
Experimental: Procedure: The experimental details of the studies, including tumor model, mouse strain, cell number implanted, vehicle used, days of treatment, treatment details, and average tumor size at start of dosing are outlined in Table 7. All study mice were obtained and the studies were conducted at Pharmaron. Each mouse was inoculated subcutaneously on the right flank with the single cell suspension of VCAP human prostate cancer tumor cells (1×10^7) in 0.1 mL with Matrigel (1:1) in DMEM medium with 10% FBS for tumor development. The mice were castrated by removing the testes via a scrotal approach when the tumor volume reached 270 mm^3. After castration, the tumor volume decreased. Treatment started when the mean tumor volume grew back 265 mm^3. Based on tumor volume, mice were randomly assigned to respective groups using a computer-generated randomization procedure and treated according to the study design in Table 8.

[3] = tested on: VCaP prostate xenograft tumors; test: VCaP prostate xenograft tumor model (Example 1), tumor growth inhibition; format: in vivo, mice
Experimental: as §1

[4] = tested on: NCI-H660 prostate xenograft tumors; test: NCI-H660 prostate xenograft tumor model, tumor growth inhibition; format: in vivo, mice; details: NCI-H660 CDX model
Experimental: as §1

[5] = VCAP CRPC model, castrated mice, Compound 1 at 10 mg/kg IP BIW, 25 days
[6] = VCAP CRPC model, castrated mice, Compound 1 at 10 mg/kg IP BIW, 25 days, Day 57

## COc1cc(-c2cn(C)c(=O)c3cnc(N4CCC4)cc23)cc(OC)c1CN1CCC(CN2CCC3(CC2)CN(c2ccc4c(c2)C(=O)N(C2CCC(=O)NC2=O)C4)C3)CC1 (stereo not drawn) [Compound 1, 3-(6-(7-((1-(4-(6-(azetidin-1-yl)-2-methyl-1-oxo-1,2-dihydro-2,7-naphthyridin-4-yl)-2,6-dimethoxybenzyl)piperidin-4-yl)methyl)-2,7-diazaspiro[3.5]nonan-2-yl)-1-oxoisoindolin-2-yl) piperidine-2,6-dione]
[1]; C42B CDX model, AR+, 3 mg/kg BIW IP
  TGI with Compound 1 3 mg/kg: 28.7%
[1]; C42B xenograft, Compound 1 3 mg/kg BIW IP, enzalutamide 30 mg/kg QD oral
  tumor growth inhibition, in words: modest tumor growth inhibition which was less than the TGI provided by enzalutamide treatment
[2]; Compound 1 10 mg/kg, enzalutamide 30 mg/kg, deaths suspected due to castration surgery
  animals found dead at the late stage of the treatment period: One
[2]; [5]
  Tumor Growth % on Day 57: 267 ± 20%
  Tumor Size on Day 57: 697 ± 44 mm3
[2]; [6]
  T/C: 86.2%
  TGI: 13.8%
[2]; VCaP CRPC model, castrated mice, Compound 1 10 mg/kg, enzalutamide 30 mg/kg, day 57 after tumor inoculation
  TGI: 13.8%
[3]; VCaP CDX model, AR V7+, 3 mg/kg BIW IP
  TGI with Compound 1 3 mg/kg: 57.8%
[3]; VCaP xenograft, Compound 1 3 mg/kg BIW IP, enzalutamide 30 mg/kg QD oral
  tumor growth inhibition, in words: tumor growth inhibition that was greater than the inhibition provided by enzalutamide treatment
[4]; AR−, 3 mg/kg BIW IP
  TGI with Compound 1 3 mg/kg: 56.9%
[4]; Compound 1 3 mg/kg BIW IP
  TGI: 56.9%
